Test results taken from ChEMBL document CHEMBL4270545, “Design, synthesis and biological evaluation of 3-piperazinecarboxylate sarsasapogenin derivatives as potential multifunctional anti-Alzheimer agents” (2018).
Activity calls are given as the source filed them. The calls are words filed in the database; no cut-off is given here.

Experiments:
[1] = system: PC-12; experiment: Neuroprotective activity against H2O2-induced cytotoxicity in rat PC12 cells assessed as cell viability at 10 uM after 24 hrs by MTT assay relative to control; assay type: functional; settings: for viability at 10 µM: PC-12, 24 h, read-out: Activity
[2] = system: RAW264.7; experiment: Antiinflammatory activity in mouse RAW264.7 cells assessed as inhibition of LPS-induced nitric oxide production at 10 uM preincubated for 30 mins followed by LPS addition measured after 20 hrs by Griess assay relative to control; assay type: functional
[3] = system: PC-12; experiment: Neuroprotective activity against amyloid beta (1 to 42)-induced cytotoxicity in rat PC12 cells assessed as cell viability at 10 uM after 48 hrs by MTT assay (reference value: 55.3 to 64.4%); assay type: functional; settings: PC-12, 48 h, read-out: Activity
[4] = system: PC-12; experiment: Neuroprotective activity against amyloid beta (1 to 42)-induced cytotoxicity in rat PC12 cells assessed as cell viability at 1 uM after 48 hrs by MTT assay (reference value: 55.3 to 64.4%); assay type: functional; settings: PC-12, 48 h, read-out: Activity
[5] = system: PC-12; experiment: Neuroprotective activity against amyloid beta (1 to 42)-induced cytotoxicity in rat PC12 cells assessed as cell viability at 30 uM after 48 hrs by MTT assay (reference value: 55.3 to 64.4%); assay type: functional; settings: PC-12, 48 h, read-out: Activity
[6] = system: PC-12; experiment: Neuroprotective activity against H2O2-induced cytotoxicity in rat PC12 cells assessed as cell viability at 1 mM after 24 hrs by MTT assay relative to control; assay type: functional; settings: PC-12, 24 h, read-out: Activity
[7] = system: Mus musculus; experiment: Antialzheimer activity in cognitive deficit ICR mouse model assessed as reduction in amyloid beta (1 to 42)-induced spatial memory impairment at 6 mg/kg, ig qd administered for 7 consecutive days by Morris water maze test; assay type: functional, organism-based

Compound: C[C@H]1CC[C@@]2(OC1)O[C@H]1C[C@H]3[C@@H]4CC[C@@H]5C[C@@H](OC(=O)N6CCN(Cc7ccccc7O)CC6)CC[C@]5(C)[C@H]4CC[C@]3(C)[C@H]1[C@@H]2C
- viability at 10 µM [1]: 36.6%
- inhibition at 10 µM [2]: 15.2%
- viability at 10 µM [3]: 95.3%
- viability at 1 µM [4]: 59.3%

Compound: C[C@H]1CC[C@@]2(OC1)O[C@H]1C[C@H]3[C@@H]4CC[C@@H]5C[C@@H](O)CC[C@]5(C)[C@H]4CC[C@]3(C)[C@H]1[C@@H]2C [SARSASAPOGENIN]
- viability at 10 µM [1]: 3.3%
- viability at 10 µM [3]: 79.2%
- viability at 30 µM [5]: 58.9%

Compound: CC(=O)N[C@@H](CS)C(=O)O [ACETYLCYSTEINE]
- viability at 1000 µM [6]: 35.3%

Compound: C[C@H]1CC[C@@]2(OC1)O[C@H]1C[C@H]3[C@@H]4CC[C@@H]5C[C@@H](OC(=O)N6CCN(Cc7ccc(N(C)C)cc7)CC6)CC[C@]5(C)[C@H]4CC[C@]3(C)[C@H]1[C@@H]2C
- viability at 10 µM [1]: 22%
- inhibition at 10 µM [2]: 5.6%

Compound: C[C@H]1CC[C@@]2(OC1)O[C@H]1C[C@H]3[C@@H]4CC[C@@H]5C[C@@H](OC(=O)N6CCN(Cc7ccc(O)cc7)CC6)CC[C@]5(C)[C@H]4CC[C@]3(C)[C@H]1[C@@H]2C
- viability at 10 µM [1]: 5.8%

Compound: C[C@H]1CC[C@@]2(OC1)O[C@H]1C[C@H]3[C@@H]4CC[C@@H]5C[C@@H](OC(=O)N6CCN(S(=O)(=O)c7ccccc7)CC6)CC[C@]5(C)[C@H]4CC[C@]3(C)[C@H]1[C@@H]2C
- viability at 10 µM [1]: 20.8%
- inhibition [2]: inactive

Compound: Cc1ccc(S(=O)(=O)N2CCN(C(=O)O[C@H]3CC[C@@]4(C)[C@H](CC[C@@H]5[C@@H]4CC[C@]4(C)[C@@H]6[C@H](C[C@@H]54)O[C@]4(CC[C@H](C)CO4)[C@H]6C)C3)CC2)cc1
- viability at 10 µM [1]: 29.5%
- inhibition at 10 µM [2]: 4.8%

Compound: C[C@H]1CC[C@@]2(OC1)O[C@H]1C[C@H]3[C@@H]4CC[C@@H]5C[C@@H](OC(=O)N6CCN(C(=O)c7ccccc7)CC6)CC[C@]5(C)[C@H]4CC[C@]3(C)[C@H]1[C@@H]2C
- viability at 10 µM [1]: 17.6%

Compound: COc1ccc(C(=O)N2CCN(C(=O)O[C@H]3CC[C@@]4(C)[C@H](CC[C@@H]5[C@@H]4CC[C@]4(C)[C@@H]6[C@H](C[C@@H]54)O[C@]4(CC[C@H](C)CO4)[C@H]6C)C3)CC2)cc1
- viability at 10 µM [1]: 17.7%

Compound: C[C@H]1CC[C@@]2(OC1)O[C@H]1C[C@H]3[C@@H]4CC[C@@H]5C[C@@H](OC(=O)N6CCN(Cc7ccc(C#N)cc7)CC6)CC[C@]5(C)[C@H]4CC[C@]3(C)[C@H]1[C@@H]2C
- viability at 10 µM [1]: 26.4%
- inhibition at 10 µM [2]: 21.6%

Compound: CCCN1CCN(C(=O)O[C@H]2CC[C@@]3(C)[C@H](CC[C@@H]4[C@@H]3CC[C@]3(C)[C@@H]5[C@H](C[C@@H]43)O[C@]3(CC[C@H](C)CO3)[C@H]5C)C2)CC1
- viability at 10 µM [1]: 18.9%

Compound: C[C@H]1CC[C@@]2(OC1)O[C@H]1C[C@H]3[C@@H]4CC[C@@H]5C[C@@H](OC(=O)N6CCNCC6)CC[C@]5(C)[C@H]4CC[C@]3(C)[C@H]1[C@@H]2C
- viability at 10 µM [1]: 3.4%

Compound: CCS(=O)(=O)N1CCN(C(=O)O[C@H]2CC[C@@]3(C)[C@H](CC[C@@H]4[C@@H]3CC[C@]3(C)[C@@H]5[C@H](C[C@@H]43)O[C@]3(CC[C@H](C)CO3)[C@H]5C)C2)CC1
- viability at 10 µM [1]: 6.8%

Compound: C[C@H]1CC[C@@]2(OC1)O[C@H]1C[C@H]3[C@@H]4CC[C@@H]5C[C@@H](OC(=O)N6CCN(S(=O)(=O)c7ccc(F)cc7)CC6)CC[C@]5(C)[C@H]4CC[C@]3(C)[C@H]1[C@@H]2C
- viability at 10 µM [1]: 8.5%

Compound: C[C@H]1CC[C@@]2(OC1)O[C@H]1C[C@H]3[C@@H]4CC[C@@H]5C[C@@H](OC(=O)N6CCN(Cc7ccccc7)CC6)CC[C@]5(C)[C@H]4CC[C@]3(C)[C@H]1[C@@H]2C
- viability at 10 µM [1]: 18.7%

Compound: C[C@H]1CC[C@@]2(OC1)O[C@H]1C[C@H]3[C@@H]4CC[C@@H]5C[C@@H](OC(=O)N6CCN(Cc7ccc(F)cc7)CC6)CC[C@]5(C)[C@H]4CC[C@]3(C)[C@H]1[C@@H]2C
- viability at 10 µM [1]: 7.2%

Compound: C[C@H]1CC[C@@]2(OC1)O[C@H]1C[C@H]3[C@@H]4CC[C@@H]5C[C@@H](OC(=O)N6CCN(C(=O)c7ccc(Cl)cc7)CC6)CC[C@]5(C)[C@H]4CC[C@]3(C)[C@H]1[C@@H]2C
- viability at 10 µM [1]: 20.2%
- inhibition [2]: inactive

Compound: COc1ccc(CN2CCN(C(=O)O[C@H]3CC[C@@]4(C)[C@H](CC[C@@H]5[C@@H]4CC[C@]4(C)[C@@H]6[C@H](C[C@@H]54)O[C@]4(CC[C@H](C)CO4)[C@H]6C)C3)CC2)cc1
- viability at 10 µM [1]: 33.1%
- inhibition at 10 µM [2]: 1.3%

Compound: C[C@H]1CC[C@@]2(OC1)O[C@H]1C[C@H]3[C@@H]4CC[C@@H]5C[C@@H](OC(=O)N6CCN(C(=O)c7ccc(N)cc7)CC6)CC[C@]5(C)[C@H]4CC[C@]3(C)[C@H]1[C@@H]2C
- Activity [1]: inactive

Compound: Cc1ccc(CN2CCN(C(=O)O[C@H]3CC[C@@]4(C)[C@H](CC[C@@H]5[C@@H]4CC[C@]4(C)[C@@H]6[C@H](C[C@@H]54)O[C@]4(CC[C@H](C)CO4)[C@H]6C)C3)CC2)cc1
- viability at 10 µM [1]: 19.2%

Compound: COc1cc(CN2CCN(C(=O)O[C@H]3CC[C@@]4(C)[C@H](CC[C@@H]5[C@@H]4CC[C@]4(C)[C@@H]6[C@H](C[C@@H]54)O[C@]4(CC[C@H](C)CO4)[C@H]6C)C3)CC2)ccc1O
- viability at 10 µM [1]: 43.9%
- inhibition at 10 µM [2]: 24.4%
- viability at 10 µM [3]: 91.3%
- viability at 1 µM [4]: 55.8%
- Activity [7]: Active
